From patent US9944645B2, “Imidazotriazines and imidazopyrimidines as kinase inhibitors” (Incyte Holdings Corporation, priority 2006, dated 2018) come the findings set out here.

A value given as a limit tells only on which side of the number the result lay.

In this assay the target is c-Met kinase (h-Met; histidine-tagged c-Met catalytic domain fusion protein) (Homo sapiens (Human), UniProt P08581). Description: In Vitro c-Met Kinase Enzyme Assays. The format is biochemical. Conditions: phosphorylation of poly Glu-Tyr, 5 μM ATP, 25 minutes at 30° C. In a few lines:
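His-tagged c-Met catalytic domain reacted 25 min at 30° C, within the linear initial-rate range. Phosphotyrosine detected by ELISA with peroxidase-labeled anti-phospho-tyrosine antibody and TMB, OD read at 450 nm (540 nm correction); IC50 from curve fit.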

c-Met kinase (h-Met; histidine-tagged c-Met catalytic domain fusion protein), sequence (P08581 1078-1345): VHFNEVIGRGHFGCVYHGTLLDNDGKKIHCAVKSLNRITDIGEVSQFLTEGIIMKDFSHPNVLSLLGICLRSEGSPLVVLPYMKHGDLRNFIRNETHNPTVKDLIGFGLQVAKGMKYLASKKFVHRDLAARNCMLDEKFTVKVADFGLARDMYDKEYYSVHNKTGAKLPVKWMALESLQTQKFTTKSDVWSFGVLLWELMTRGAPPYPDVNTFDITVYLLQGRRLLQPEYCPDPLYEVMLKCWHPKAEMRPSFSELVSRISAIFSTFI

One may read the IC50 as the midpoint of a concentration-inhibition curve. A lower IC50 goes with greater potency in that assay. Consider `CC(C)(C)[C@H](NC(=O)c1ccc(-c2cnc3ncc(C4(c5ccc6ncccc6c5)CC4)n3c2)cc1F)C(=O)N1CCC1` [Example 198, N-[(1S)-1-(Azetidin-1-ylcarbonyl)-2,2-dimethylpropyl]-2-fluoro-4-[3-(1-quinolin-6-ylcyclopropyl)imidazo[1,2-a]pyrimidin-6-yl]benzamide], for which the IC50 is < 500 nM.

For `CC(NC(=O)c1ccc(-c2cnc3ncc(C4(c5ccc6ncccc6c5)CC4)n3c2)cc1F)C(=O)N(C)C` (stereo not shown) [Example 199, N-[2-(Dimethylamino)-1-methyl-2-oxoethyl]-2-fluoro-4-[3-(1-quinolin-6-ylcyclopropyl)imidazo[1,2-a]pyrimidin-6-yl]benzamide], the IC50 is < 500 nM.

With `CC(NC(=O)c1ccc(-c2cnc3ncc(C4(c5ccc6ncccc6c5)CC4)n3c2)cc1F)C(=O)N1CCC1` (stereo not shown) [Example 200, N-(2-Azetidin-1-yl-1-methyl-2-oxoethyl)-2-fluoro-4-[3-(1-quinolin-6-ylcyclopropyl)imidazo[1,2-a]pyrimidin-6-yl]benzamide], the IC50 was < 500 nM.

Consider `O=C(NCC1(O)CC1)c1ccc(-c2cnc3ncc(Cc4ccc5ncccc5c4)n3n2)cc1F` [Example 202, 2-Fluoro-N-[(1-hydroxycyclopropyl)methyl]-4-[7-(quinolin-6-ylmethyl)imidazo[1,2-b][1,2,4]triazin-2-yl]benzamide], for which the IC50 was < 500 nM.

For `COC(=O)N1CCC(CC#N)(n2cc(-c3cnc4ncc(Cc5ccc6ncccc6c5)n4n3)cn2)CC1` [Example 203, Methyl 4-(cyanomethyl)-4-{4-[7-(quinolin-6-ylmethyl)imidazo[1,2-b][1,2,4]triazin-2-yl]-1H-pyrazol-1-yl}piperidine-1-carboxylate], the IC50 was < 500 nM.

For the compound `CCOC(=O)N1CCC(CC#N)(n2cc(-c3cnc4ncc(Cc5ccc6ncccc6c5)n4n3)cn2)CC1` [Example 204, Ethyl 4-(cyanomethyl)-4-{4-[7-(quinolin-6-ylmethyl)imidazo[1,2-b][1,2,4]triazin-2-yl]-1H-pyrazol-1-yl}piperidine-1-carboxylate], the IC50 was < 500 nM.

With `CC(=O)N1CCC(CC#N)(n2cc(-c3cnc4ncc(Cc5ccc6ncccc6c5)n4n3)cn2)CC1` [Example 205, (1-Acetyl-4-{4-[7-(quinolin-6-ylmethyl)imidazo[1,2-b][1,2,4]triazin-2-yl]-1H-pyrazol-1-yl}piperidin-4-yl)acetonitrile], the IC50 is < 500 nM.
